Data taken from patent US20070292440A1, “CD154 blockade therapy for pancreatic islet tissue transplantation” (priority 1997, published 2007).
“And” between values parts separate entries of the source, which are not always exact repeats. Equal values may be shown once.

Assays:
[1] = test system: islet allografts in pancreatectomized baboons; assay: Baboon model of islet cell transplantation (ICT) for pancreatectomy-induced diabetes; type: in vivo, Baboon (Papio hamadryas)
Protocol: Identification of donor-recipient pairs. Peripheral blood mononuclear cells (PBMC) from 10 potential recipients (Baboons, Papio hamadryas, male and female, 1-2 years of age, approximately 4.0 kg) from the Mannheimer facility (Homestead, Fla.) were used as responders against PBMC from 11 male donors (over 2 years of age, purchased from the Southwest Foundation in Texas) in a one way mixed leukocyte culture (MLC). The baboon MLC was performed via standardized methods for human MLC. […] The donors were of a sufficient size that enough islets and bone marrow were obtained from 1 donor to allow for transplantation into 2 recipients. […] An attempt was made to choose two recipients with similar MLC reactivity to the designated donor, and donor-recipient pairs with varying degrees of alloreactivity were chosen.
Islet/bone marrow preparation and administration.
For studies on enhancing tolerance, vertebral body was harvested from the pancreas donor and processed to obtain donor bone marrow cells (DBMC) generally according to routine modifications of methods for processing of human vertebral bodies. For recipients of donor bone marrow, infusions were administered on days 5 and II post ICT. A total dose of 10^9 nucleated cells per kg recipient body weight was given.
Pancreatectomy and ICT. […] The number of IEQ was determined immediately prior to transplantation. Total pancreatectomy was performed according to established surgical techniques. After completion of the total pancreatectomy, a 20G angiocatheter was inserted into one of the mesenteric vessel tributaries of the portal vein, and ICT was accomplished by gravity infusion of the islet preparation over a 10 min period.
Immunosuppression and post-operative care. FK506 (tacrolimus) was chosen as the immunosuppressant, as this drug is currently utilized in human ICT. FK506 administration commenced at 5 days prior to ICT. A dosage of 0.1 mg/kg/day, i.m. was administered to recipient baboons. Drug levels were monitored daily and dosage was adjusted to maintain trough levels of approximately 15 ng/ml.
For the first post-operative day (study day 1, or POD 1), the baboons were given intravenous fluids. The animals were subsequently fed a diet containing 60 g of carbohydrate per day, with 45 g of monkey biscuits (supplemented with viokase) and 15 g of fruit.
Monitoring. Fasting and post-prandial blood glucose (FG and PPG, respectively) were monitored via heel stick and blood testing with a Glucometer Elite, and at least once weekly, a blood sample was drawn to obtain plasma for testing of FG levels with a Beckman glucose analyzer. In general a blood sample was also obtained to confirm unusually high readings. […] At approximately 3 months post-transplant, testing was decreased to every other week. The blood samples were used for phenotyping of peripheral blood to assess leukocyte subsets and determination of CBC and chemistries, 5c8 and anti-5c8 levels, insulin and C-peptide levels, and chimerism. Blood was drawn periodically for retesting of MLC reactivity to donor and 3rd party antigens.

[2] = test system: islet allografts in pancreatectomized diabetic rhesus monkeys; assay: Rhesus monkey model of ICT for pancreatectomy-induced diabetes; type: in vivo; settings: induction days -1, 0, 3, 10 + monthly maintenance, monotherapy
Protocol: Unless specified, all procedures were generally as described above for the baboon model studies.
Animal procedures. SPF rhesus monkeys, 2-7 years of age, are readily available from COVANCE (Alice, Tex.) or the Mannheimer Foundation, Inc. (Homestead, Fla.) or similar vendors. Upon admission, all monkeys are examined to determine their general health, physical condition, and psychological status. All surgical procedures are carried under aseptic conditions. Animals are fasted for 12-18 hours before surgery and will be pre-anesthetized with i.m. ketamine (10 mg/kg) and atropine (0.04 mg/kg). Once the animal is sedated, an endotracheal tube and an i.v. catheter are promptly installed. The endotracheal tube is used to protect the airway and provide easy access for emergency drugs. The animals are anesthetized with an isoflurane and oxygen combination. Normal saline solution for injection is infused through the catheter throughout the entire ICT procedure at a rate of 10 ml/kg/hour.
A midline incision is made to gain access to the abdominal organs. For both donor and recipient animals, a total pancreatectomy is performed with preservation of the duodenum. […]
Monitoring. […] Fasting blood glucose (FG) levels are determined by using a lancet to prick the heel, to obtain a small drop of blood for placement on a glucometer strip. […]

[3] = test system: islet allograft function (glucose metabolism) in baboons; assay: Intravenous glucose tolerance testing (IVGTT) of baboon islet allograft recipients; type: in vivo, Baboon (Papio hamadryas)
Protocol: Intravenous Glucose Tolerance Testing (IVGTT). It has been previously shown that in vivo islet-cell function tests give an accurate reflection of changes in β cell mass. (McCulloch et al., Diabetes 40: 673-679, 1991). Intravenous glucose tolerance tests were carried out after a 16- to 18-h overnight fast, as previously described (Lehmann et al., J. Med. Primatol. 26: 312-321, 1997). In brief, blood samples were collected at −10, −5, and 0 min. Then 0.5 g glucose per kg of body weight in a 50% glucose solution was injected over 20 seconds into the saphenous vein. 1.5 ml samples were collected from the contralateral femoral artery at 1, 3, 5, 7, 10, 15, 20, 25, 30 min post injection. Thus, a total of 12 blood samples were withdrawn over a […] period. The samples were drawn into glass tubes containing 0.05 ml 15% fluid EDTA and 0.2 ml trasylol (500 K.I.U. aprotinin/ml blood), placed on ice, and centrifuged within 10 minn. Plasma was then frozen at −80° C. and assayed later for glucose, immunoreactive insulin, and glucagon.
Statistical analysis and calculations. Results are set forth as means ±SEM. The glucose disappearance constant (Kg) was calculated from the IVGTT as the slope of the decline of the loge (In) plasma glucose between 10 and 30 min. after the glucose injection, multiplied by 100. The acute insulin response to glucose (AIRG) was calculated as the incremental area under the insulin curve (AUC) between 1-10 min after the IV glucose injection. The incremental responses (AUCGlucose, AUCInsulin) were calculated by means of the trapezoidal rule with subtraction of the basal values from 1 to 30 minutes, Data were analyzed with Statistica for Windows software (Version 5.0, 1997. Statsoft Inc., Tulsa, Okla., USA).

Compound	day of islet allograft rejection ([1]; Baboon, FK506 alone) [day]	day of islet allograft rejection ([1]; Baboon, FK506 in combination with stem cell selected marrow) [day]	day of islet allograft rejection ([1]; Baboon, FK506 in combination with whole bone marrow) [day]	islet allograft function and rejection episodes [2]	islet allograft survival versus control or FK506 treated animals ([1]; 4 out of 5 baboons)	Duration (in PODs) of Insulin Independence ([1]; Baboon, Induction + Anti-Rejection regimen, animal received a reduced dose of 5c8) [PODs]	POD until which graft was maintained after treatment for rejection ([1]; Baboon, induction 20 mg/kg days -1, 3, 10 + monthly maintenance from POD 28, bone marrow infusions PODs 5 and 11, listed as 5C8)	graft survival of functioning islet allografts ([1]; Baboon, other animals in the study, range of survivals, listed as hu5c8)	adverse effect on insulin secretion or overall insulin sensitivity ([3]; baboon studies)	FPIS (first phase insulin secretion) after islet transplantation ([3]; baboons on maintenance therapy, follow-up 16 weeks)	Kg values (glucose disappearance constant) in repeated IVGTT ([3]; baboons treated at the time of rejection, after 8 postoperative weeks)	Kg values (glucose disappearance constant) in repeated IVGTT ([3]; baboons treated with maintenance doses)
C=CC[C@@H]1/C=C(\C)C[C@H](C)C[C@H](OC)[C@H]2O[C@@](O)(C(=O)C(=O)N3CCCC[C@H]3C(=O)O[C@H](/C(C)=C/[C@@H]3CC[C@@H](O)[C@H](OC)C3)[C@H](C)[C@@H](O)CC1=O)[C@H](C)C[C@@H]2OC [FK506, tacrolimus, reference compound]	10	10	8	–	–	–	–	–	–	–	–	–
Anti-CD154: humanized MAb having the antigen-specific binding properties of MAb 5c8; CD154 (CD40L) blocking agent	–	–	–	functional islet allografts are maintained without the occurrence of rejection episodes	extended islet allograft survival	8	162 POD and 124 POD	> 125 days and > 220 days	no adverse effect	well preserved	decline	Stable values
